Measurements: PubChem BioAssay (NCI)
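Here, GI50 denotes the concentration required for 50% inhibition of growth. TGI denotes the concentration required for complete inhibition of growth.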

Assays:
Test in all cases: NCI-60 cell line screen, 384-well format; in the data active means GI50 below about 0.43 µM; inactive means the rest
NCI-H226 lung = system: NCI-H226 lung
NCI-H23 lung = system: NCI-H23 lung
NCI-H322M lung = system: NCI-H322M lung
NCI-H460 NSCLC = system: NCI-H460 NSCLC
NCI-H522 lung = system: NCI-H522 lung
NCI/ADR-RES ovarian = system: NCI/ADR-RES ovarian
OVCAR-3 ovarian = system: OVCAR-3 ovarian
OVCAR-4 ovarian = system: OVCAR-4 ovarian
OVCAR-5 ovarian = system: OVCAR-5 ovarian
OVCAR-8 ovarian = system: OVCAR-8 ovarian
PC-3 prostate = system: PC-3 prostate
RPMI-8226 leukemia = system: RPMI-8226 leukemia
RXF 393 renal = system: RXF 393 renal
SF-268 CNS = system: SF-268 CNS
SF-295 CNS = system: SF-295 CNS
SF-539 CNS = system: SF-539 CNS
SK-MEL-28 melanoma = system: SK-MEL-28 melanoma
SK-MEL-5 melanoma = system: SK-MEL-5 melanoma
SK-OV-3 ovarian = system: SK-OV-3 ovarian
SN12C renal = system: SN12C renal
SNB-19 CNS = system: SNB-19 CNS
SNB-75 CNS = system: SNB-75 CNS
SR leukemia = system: SR leukemia
SW-620 colon = system: SW-620 colon
T-47D breast = system: T-47D breast
TK-10 renal = system: TK-10 renal
UACC-257 melanoma = system: UACC-257 melanoma
UACC-62 melanoma = system: UACC-62 melanoma
UO-31 renal = system: UO-31 renal

CCOCC1(COCC)CCC(c2[nH]ncc2CN(C)CCNC)CC1
57.4 µM: TGI (RPMI-8226 leukemia)
30.2 µM: TGI (UACC-257 melanoma)
active: GI50 (SR leukemia) 0.386 µM
> 100 µM: TGI (NCI-H226 lung) | TGI (NCI-H23 lung) | TGI (NCI-H322M lung) | TGI (NCI-H460 NSCLC) | TGI (NCI-H522 lung) | TGI (NCI/ADR-RES ovarian) | TGI (OVCAR-3 ovarian) | TGI (OVCAR-4 ovarian) | TGI (OVCAR-5 ovarian) | TGI (OVCAR-8 ovarian) | TGI (PC-3 prostate) | TGI (RXF 393 renal) | TGI (SF-268 CNS) | TGI (SF-295 CNS) | TGI (SF-539 CNS) | TGI (SK-OV-3 ovarian) | TGI (SN12C renal) | TGI (SNB-19 CNS) | TGI (SNB-75 CNS) | TGI (SW-620 colon) | TGI (T-47D breast) | TGI (TK-10 renal) | TGI (UO-31 renal)
9.85 µM: TGI (SR leukemia)
33.3 µM: TGI (UACC-62 melanoma)
inactive: GI50 (NCI-H23 lung) > 100 µM | GI50 (NCI-H322M lung) > 100 µM | GI50 (NCI-H460 NSCLC) 8.56 µM | GI50 (NCI-H522 lung) 96.8 µM | GI50 (NCI/ADR-RES ovarian) > 100 µM | GI50 (OVCAR-3 ovarian) 1.75 µM | GI50 (OVCAR-4 ovarian) > 100 µM | GI50 (OVCAR-5 ovarian) 28.5 µM | GI50 (OVCAR-8 ovarian) > 100 µM | GI50 (PC-3 prostate) > 100 µM | GI50 (RPMI-8226 leukemia) 2.52 µM | GI50 (RXF 393 renal) > 100 µM | GI50 (SF-268 CNS) > 100 µM | GI50 (SF-295 CNS) 6.65 µM | GI50 (SF-539 CNS) 90.4 µM | GI50 (SK-MEL-28 melanoma) 11.3 µM | GI50 (SK-MEL-5 melanoma) 11.5 µM | GI50 (SK-OV-3 ovarian) 47.1 µM | GI50 (SN12C renal) 64.8 µM | GI50 (SNB-19 CNS) > 100 µM | GI50 (SNB-75 CNS) > 100 µM | GI50 (SW-620 colon) > 100 µM | GI50 (T-47D breast) 27.3 µM | GI50 (TK-10 renal) 43.4 µM | GI50 (UACC-257 melanoma) 14.8 µM | GI50 (UACC-62 melanoma) 12.6 µM | GI50 (UO-31 renal) > 100 µM
29.3 µM: TGI (SK-MEL-28 melanoma)
34.5 µM: TGI (SK-MEL-5 melanoma)
